# Columns and labels:
# GSH = test: Total GSH levels in cortical cultures; type: cell-based; details: NEM
# Procedure: Cell cultures, transfection, and glutathione (GSH) measurement. […] Transfection was performed with Lipofectamine 2000 (Invitrogen). In the reporter gene assays, firefly luciferase activity in cell lysates was measured with a luminometer (Promega). Total GSH (reduced and oxidized) was determined as described (Lee et al., Biochem. Biophys. Res. Commun. 280:286-292, 2001).
# One caveat to the mechanism of NEPP and other electrophilic compounds acting at the level of Keap1 to induce HO-1 transcription is that NEPP could potentially react indiscriminately with other thiol-containing compounds in cells. To approach this question, we assessed cellular glutathione (GSH) levels to determine whether NEPP11 would affect this abundant antioxidant thiol. Nepp11 or N-ethylmaleimide (NEM) was added at t=0 and levels of total GSH were measured at the indicated times. GSH content of control cortical cultures (set arbitrarily at 100%) was 46.8±4.5 nmol/mg protein. […] In fact, this scenario seems likely, because the Keap1/Nrf2 pathway regulates the expression of γ-GCL in addition to HO-1 (Itoh et al., Mol. Cell. Biol. 24:36-45, 2004). […]
# Transfections were performed with Lipofectamine 2000 (Invitrogen), and firefly luciferase activity in cell lysates was measured with a luminometer in the reporter gene assays (Promega).
# cerebrocortical neurons = test: NMDA-induced neuronal cell death (excitotoxicity) in cerebrocortical cultures; details: ZnPP 10 μM added simultaneously with NEPP11
# Procedure: We stained the cultures with both anti-MAP-2 and anti-NeuN monoclonal antibodies to label neuronal dendrites and nuclei, respectively. Vehicle or NEPP11 (0.7 μM) was added to cerebrocortical cultures (E17 and DIV14-21) 60 min before treatment with NMDA (50 μM) for 15 min. The cultures were then incubated for 20 h and subsequently stained with anti-MAP-2 and anti-NeuN and with Hoechst dye. Apoptotic nuclei were identified by morphological changes seen with Hoechst staining. […] We also added zinc protoporphyrin (ZnPP, 10 μM), a relatively specific HO-1 antagonist, simultaneously with NEPP11. The number of apoptotic neurons was assessed by determining the apoptotic index [(number of condensed nuclei in MAP-2 or NeuN-positive cells)/(number of total MAP-2 or NeuN-positive cells)×100%], as reported by Bonfoco et al. (Proc. Natl. Acad. Sci. USA 92:7162-7166, 1995).
# Cerebrocortical cultures were prepared from embryonic day-17 Sprague-Dawley rats and used at day 14-21 in vitro (DIV14-21), as described (Bonfoco et al., Proc. Natl. Acad. Sci. USA 92:7162-7166, 1995). To induce predominantly neuronal apoptosis (rather than necrosis), we exposed cortical cultures to 50 mM NMDA plus 5 mM glycine/1.8 mM CaCl2 in nominally Mg^2+-free Earle's balanced salt solution for 15 min (Bonfoco et al., Proc. Natl. Acad. Sci. USA 92:7162-7166, 1995). After exposure to NMDA, the cultures were returned to normal medium containing vehicle or NEPP11 and incubated for 20 hr before analyzing cell survival. To assess the ability of NEPP compounds to block NMDA-induced neuronal apoptosis, we identified apoptotic neurons by double immunofluorescence with anti-NeuN and anti-MAP-2 to specifically label neurons and with Hoechst staining for nuclear morphology to detect apoptosis. The percentage of neurons and non-neuronal cells in our cultures was 33.6±4.9% and 66.4±4.4% (n=4), respectively.
# In addition, we used mature cortical cultures (E17, DIV21) to assess excitotoxicity because functional NMDA receptors are expressed on these neurons.
# PC12h cells = test: Oxidative glutamate toxicity in PC12h cells (MTT assay); type: cell-based
# Procedure: PC12h cells, PC12hW1B cells, and PC12hD5D cells (expressing Nrf2DN) were incubated with various concentrations of glutamate for 20 h. […] Various concentrations of CA were added to PC12, PC or PC12hD5D cells 1 h prior to exposure to 5 mM glutamate for 20 h.
# PC12h and COST cell cultures.
# Thus, we examined whether CA could protect PC12h cells from such insults. We prepared naïve PC12h cells, Nrf2WT-expressing PC12h cells (PC12hW1B), and Nrf2DN-expressing PC12h cells (PC12hD5D). In order to examine the effects of the Keap1/Nrf2 pathway on cell survival in the face of oxidative stress, we exposed the cells to a high concentration of glutamate. […] To visualize surviving and dead cells, we stained cultures with fluorescein diacetate (FDA) and propidium iodide (PI), respectively. Additionally, cell survival was quantified by the 3-(4,5-dimethylthiazol-2-yl)-2,5-diphenyl tetrazolium bromide (MTT) assay (FIG. 4A).
# We next tested the hypothesis that CA-induced neuroprotection is mediated by the Keap1/NRf2 pathway.
# [1] = tested on: mixed neuronal/glial cortical cultures; test: Site of accumulation of biotin-labeled compound in mixed neuronal/glial cortical cultures; type: cell-based, rat; details: E17 DIV21
# Procedure: Activation of the Keap1/Nrf2 pathway in Primary Cortical Cultures. To begin to test the effects of NEPP compounds on primary cerebrocortical neurons, we treated mixed neuronal/glial cortical cultures with NEPP6-biotin and then fixed and stained with rhodamine conjugated to streptavidin to determine the site of NEPP accumulation. Cortical cultures treated with NEPP6-biotin (10 μM) were stained with anti-MAP-2 monoclonal and rhodamine-conjugated streptavidin antibodies and with Hoechst 33,258 dye.
# Immunocytochemistry. Cultures were fixed with 3% paraformaldehyde at room temperature for 20 min. After three washes in PBS, the cells were permeabilized with 0.3% Triton X-100 for 5 min. After three additional washes in PBS, the cells were incubated at 4° C. overnight with primary antibodies. They were then washed three times in PBS containing 0.2% Tween 20 (PBS-T), and next incubated with secondary antibodies for 1 h at room temperature. Thereafter, the cells were again washed, and their nuclei stained with Hoechst 33,258 (5 μg/ml) or with DAPI (1 μg/ml) for 5 min. Stained preparations were mounted and examined by epifluorescence microscopy. The following primary antibodies were used: anti-Nrf2 antibody, anti-MAP2 and anti-NeuN antibodies to identify neurons (dendrites and nuclei, respectively), and anti-S100β antibody to identify astrocytes. […]
# [2] = biological target: T1, bovine serum albumin (BSA) (Bos taurus, UniProt P02769); test: Adduct formation with free cysteine of BSA (streptavidin blot); type: binding; details: PBS, room temperature, 5 h, streptavidin probe
# T1 construct: purchased WAKO Chemicals Inc. (Tokyo, Japan) or Sigma (St. Louis, Mo.)
# Procedure: We tested whether the free cysteine of bovine serum albumin (BSA) could form an adduct with NEPP compounds. If carbon #11 on the NEPP compounds binds to this free cysteine of BSA, then pretreatment with N-ethylmaleimide (NEM), in irreversible thiol alkylating agent, would abolish this binding. […] With streptavidin as a probe, we could then detect proteins bound to NEPP6-biotin. In order to study thiols as targets of NEPP binding, BSA (1 μg per lane) was incubated with various concentrations (0-1000 μM) of N-ethylmaleimide (NEM) for 30 minutes at room temperature. Vehicle or NEPP6-biotin (10 μM) in phosphate-buffered saline (PBS) was added and the mixture was incubated at room temperature for 5 h, subjected to sodium dodecyl sulfate polyacrylamide gel electrophoresis (SDS-PAGE), and probed with peroxidase-conjugated streptavidin. The gel was also stained with Coomassie brilliant blue.
# Keap1 [3] = biological target: T2, Keap1 (Mus musculus, UniProt Q9Z2X8); test: Binding of CAB/CA to Keap1 and Keap1 deletion mutants (streptavidin precipitation); details: COS7 cells, HA-WT Keap1, 10 μM CAB
# T2 construct: expressed in transfected cells; host or cells: COS7 cells
# Procedure: (§1) (3) Expression vectors for HA-tagged Keap1 and Keap1 deletion mutants. These constructs were obtained from Dr. Akira Kobayashi of Tohoku University (Hosoya et al., J. Biol. Chem. 29:27244-27250, 2006; Kobayashi et al., Mol. Cell. Biol. 26:221-229, 2006).
# (§2) Immunoprecipitation with agarose-immobilized streptavidin or antibody. PC12h cells (CAB- or vehicle-treated) were lysed in RIPA buffer supplemented with protease inhibitor cocktail. The lysates were centrifuged at 15,000 rpm for 10 min at 4° C., after which the supernatants were incubated with agarose-immobilized streptavidin at 4° C. for 1 h. Alternatively, for immunoprecipitation with anti-Keap1, the cell lysates were incubated with the antibody at 4° C. overnight, after which protein A immobilized on Sepharose CL-4B was added and incubation continued at 4° C. for 1 h. Then, the complexes were washed three times with rinse buffer (150 mM NaCl, 50 mM Tris-HCl [pH 7.5], 0.1% NP-40, 1 mM EDTA, and 0.02% NaN3). SDS sample buffer was added, the mixture was boiled for 5 min, and the supernatants were subjected to SDS-PAGE. Immunoblotting was then performed as described above.
# (§3) CA activates the Keap1/Nrf2/ARE pathway. […] The initial reaction in this activation cascade is the binding of an electrophilic compound to specific cysteines on Keap1 protein (Hong et al., Chem. Res. Toxicol. 18: 1917-1926, 2005; Eggler et al., Proc. Nat. Acad. Sci. USA 102:10070-10075, 2005; Zhang et al., Mol. Cell. Biol. 10941-10953, 2004). Such binding initiates a cellular transcription pathway leading to induction of phase 2 enzymes (Talalay, Biofactors 12:5-11, 2000; Padmanabham et al., Mol. Cell 21:689-700, 2006; Itoh et al., Free Radic. Biol. Med. 36:1208-1213, 2004). Therefore, we examined the domains of Keap1 (designated BTB, IVR, and DGR) to determine those essential for binding to CA. Accordingly, for co-immunoprecipitation experiments, we transfected COS7 cells with DNA expressing either HA-tagged wild type Keap1 protein (HA-WT Keap1) or various deletion mutants of tagged Keap1 protein (HA-ΔBTB Keap1, HA-ΔIVR Keap1, and HA-ΔDGR Keap1). The transfected COS7 cells were then treated with vehicle or 10 μM CAB and lysed. We quantified the expression level of Keap1 protein in total cell lysates with anti-HA antibody. Each Keap1 mutant protein was expressed at a similar level of the predicted molecular weight (57 kDa for HA-ΔBTB Keap1, 53 kDa for HA-ΔIVR Keap1, and 37 kDa for HA-ΔDGR Keap1). Next, in order to detect Keap1/CAB complexes, we immunoprecipitated cell lysates with streptavidin and probed with anti-HA antibody. […] The requirement of the BTB domain for CA binding is in accord with prior results (Hong et al., Chem. Res. Toxicol. 18:1917-1926, 2005; Eggler et al., Proc. Nat. Acad. Sci. USA 102:10070-10075, 2005; Zhang et al., Mol. Cell. Biol. 24:10941-10953, 2004).
# (§4) After binding of the electrophilic quinone-form of CA to Keap1 protein, activation of the Keap1/Nrf2 pathway requires nuclear translocation of Nrf2 (Talalay, Biofactors 12:5-11, 2000; Padmanabham et al., Mol. Cell 21:689-700, 2006; Itoh et al., Free Radic. Biol. Med. 36:1208-1213, 2004). Thus, we next examined the intracellular distribution of Nrf2 protein in COS7 cells by immunofluorescence.
# Keap1 [4] = test: as above; details: COS7 cells, 10 μM CAB
# Procedure: as §1, §2, §3, §4
# ARE = test: ARE(GSTYa)-luciferase reporter in PC12h cells; type: cell-based
# Procedure: (1) pGL3-GSTYa ARE core-luciferase vector. […] The dsDNA thus obtained was inserted into the Mlu l and Bglll sites of the pGL3-promoter vector (Promega Co., Madison, Wis.).
# Transient transfection and measurement of luciferase activity. PC12h cells or cerebrocortical cultures (E17, DIV21) were incubated for 5 h in EBSS containing 1 μg of a plasmid DNA plus Lipofectamine 2000 (Invitrogen, Carlsbad, Calif.). Transfection efficiency was normalized to β-galactosidase activity expressed by co-transfection with pSV-β-gal (Promega). For reporter gene assays, cells were transfected with 1 μg of the reporter construct [ARE(GSTYa)-luciferase] and 0.2 μg pSV-β-gal for 1 hour. […] Firefly luciferase activity and β-galactosidase activity in cell lysates were measured using a Luciferase System and β-Galactosidase Enzyme Assay System, respectively (Promega, Madison, Wis.).
# Next, we examined the involvement of the Keap1/Nrf2 pathway more precisely by studying activation of the ARE. This transcription element responds to the Keap1/Nrf2 pathway; we monitored activation of the ARE by performing luciferase reporter gene assays using PC12h cells transfected with ARE(GSTYa)-luciferase (Alam et al., J. Biol. Chem. 274:26071-26077, 1999) in the presence or absence of an Nrf2 dominant-negative (DN) or Keap1 expression vector.
# T1 sequence (P02769 25-607): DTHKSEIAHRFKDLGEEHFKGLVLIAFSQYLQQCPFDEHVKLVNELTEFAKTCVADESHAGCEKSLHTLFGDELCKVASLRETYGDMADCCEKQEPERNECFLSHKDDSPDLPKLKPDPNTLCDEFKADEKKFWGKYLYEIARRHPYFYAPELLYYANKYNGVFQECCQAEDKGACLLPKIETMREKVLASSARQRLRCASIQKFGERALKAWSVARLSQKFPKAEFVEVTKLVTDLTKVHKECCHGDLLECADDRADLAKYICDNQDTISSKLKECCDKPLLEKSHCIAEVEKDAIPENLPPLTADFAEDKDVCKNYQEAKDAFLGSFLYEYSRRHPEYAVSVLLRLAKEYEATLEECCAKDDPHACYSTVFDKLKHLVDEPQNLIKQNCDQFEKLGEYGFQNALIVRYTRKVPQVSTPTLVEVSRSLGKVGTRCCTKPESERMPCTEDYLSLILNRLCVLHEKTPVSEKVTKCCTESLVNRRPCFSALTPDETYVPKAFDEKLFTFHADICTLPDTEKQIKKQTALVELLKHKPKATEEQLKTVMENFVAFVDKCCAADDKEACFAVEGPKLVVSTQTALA
# T2 sequence (Q9Z2X8 whole entry): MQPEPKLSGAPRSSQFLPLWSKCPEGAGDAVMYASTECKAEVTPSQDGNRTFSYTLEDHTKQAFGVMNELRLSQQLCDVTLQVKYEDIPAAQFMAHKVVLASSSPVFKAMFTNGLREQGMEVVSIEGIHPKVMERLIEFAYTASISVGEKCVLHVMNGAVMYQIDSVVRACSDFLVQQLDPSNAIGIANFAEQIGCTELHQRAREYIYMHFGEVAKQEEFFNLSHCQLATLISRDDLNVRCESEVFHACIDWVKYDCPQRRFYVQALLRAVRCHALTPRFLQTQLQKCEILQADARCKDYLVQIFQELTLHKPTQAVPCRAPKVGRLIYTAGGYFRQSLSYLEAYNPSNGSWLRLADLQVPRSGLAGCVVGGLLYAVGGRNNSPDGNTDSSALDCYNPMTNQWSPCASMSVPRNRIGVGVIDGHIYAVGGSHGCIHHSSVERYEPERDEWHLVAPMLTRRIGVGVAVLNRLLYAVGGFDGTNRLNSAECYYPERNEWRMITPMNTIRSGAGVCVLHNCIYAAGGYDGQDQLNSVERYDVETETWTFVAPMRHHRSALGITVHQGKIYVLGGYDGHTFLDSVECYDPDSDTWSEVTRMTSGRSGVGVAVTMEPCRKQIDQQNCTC
smiles,measurement,setting,value
"CCN1C(=O)C=CC1=O [NEM, N-ethylmaleimide, reference compound]",outcome for neurons in cortical cultures,GSH,neuronal death after 24 h
"C=CC1=C(C)c2cc3[n-]c(cc4nc(cc5[n-]c(cc1n2)c(C)c5C=C)C(C)=C4CCC(=O)O)c(CCC(=O)O)c3C.[Zn+2] [ZnPP, zinc protoporphyrin, reference compound]",effect of HO-1 antagonist on neuroprotection by NEPP11,cerebrocortical neurons,abrogated the neuroprotective effect of NEPP11
"C[S+]([O-])CCCCN=C=S (stereo not shown) [sulforaphane, reference compound]",protection of PC12h cells against oxidative glutamate toxicity,PC12h cells,did not protect
CC(C)c1cc2c(c(O)c1O)C1(C(=O)NCCCCCNC(=O)CCCCC3SCC4NC(=O)NC43)CCCC(C)(C)C1CC2 (stereo not shown) [CAB],"level required to protect PC12h cells, relative to CA",PC12h cells,a greater level of CAB than CA was required
same,site of accumulation at low concentration,[1]; CAB 3 μM,non-neuronal cells were strongly positive
same,site of accumulation at higher concentration,[1]; CAB 10 μM,neurons were also labeled
same,adduct formation with BSA,[2],a single band (68 kDa) corresponding to the complex of BSA and CAB was detected
same,binding to Keap1-WT (73-kDa protein),Keap1 [3],observed in cells treated with CAB
same,binding to IVR Keap1,Keap1 [4],very little binding
same,binding to ΔBTB Keap1,Keap1 [4],no binding at all
same,binding to ΔDGR Keap1,Keap1 [4],strong binding
same,ARE activation relative to CA,ARE; 20 μM CAB versus 10 μM CA,to a much lesser extent
same,activation of the ARE,"ARE; PC12h cells, CAB",significantly activated the ARE
